The source of these data is patent US10668118B2, “Microbial consortium and uses thereof” (The Regents of the University of California, priority 2016, dated 2020).

Molecules are shown by their SMILES. Entries after “also recorded” stand apart in the source; their conditions may differ.

The test system of this test is CD4^+CD25^+FOXP3^+ cells. The test is described as follows: Ex vivo dendritic cell challenge and T cell co-culture with 12,13-DiHOME. The class given is cell-based, human. The protocol:
Ex vivo dendritic cell challenge and T cell co-culture. Fecal samples from five of ten NGM1 and seven of eight NGM3 neonates that had undergone metabolic profiling were used (biological replicates). Excluded samples from these groups had insufficient volume for analyses. Fecal samples were homogenized 1 g ml^−1 (w:v) in pre-warmed phosphate-buffered saline (PBS) containing 20% FBS (FBS). Samples were vortexed, incubated (37° C., 10 min) and centrifuged (14,000 rpm, 30 min). Supernatant was filter-sterilized through a 0.2-μm filter before being used in the dendritic cell (DC) T cell assay described below. PBS was used as the negative control. Treatment conditions used for the DiHOME experiment included: 75 μM, 130 μM and 200 μM 12,13 DiHOME (Cayman Chemical, Ann Arbor, Mich.) solubilized in 0.4%, 0.15% and 0.05% DMSO, respectively. DiHOME solutions were added to R10 media (Roswell Park Memorial Institute media 1640 with 10% heat-inactivated FBS (antigen activator) and 2 mM 1-glutamine and 100 U ml^−1 penicillin-streptomycin added; Life Technologies) and exposed to DCs within 1 h of preparation. Controls included PBS and DMSO (delivered in R10 media) at corresponding percentages used to dissolve the different concentrations of DiHOME.
Peripheral blood mononuclear cells (PBMCs) were purified from plasma obtained from healthy, de-identified human donors (Blood Centers of the Pacific, San Francisco, Calif.) through the cell-sourcing program that ensures donor confidentiality. Donors signed an agreement acknowledging that their blood may be used for research. PBMCs were isolated using Ficoll-Hypaque gradient centrifugation, washed twice with R10 media and incubated for 18 h. Dendritic cells (DCs) were isolated from PBMCs using the EasySep Human Pan-DC Pre-Enrichment Kit (STEMCELL Technologies, Vancouver, BC). DCs (0.5×10^6 cells ml^−1) from two donors (biological replication) were treated in triplicate (treatment replicate) with either cell-free fecal water ([…]) or varying concentrations of DiHOME, and cultured in R10 media supplemented with 10 ng ml^−1 GM-CSF and 20 ng ml^−1 IL-4 at 37° C.^27 for 2 d, for the fecal-water assay, or 5 d, for the DiHOME experiment. For the DiHOME experiment, freshly prepared media containing DiHOME or control exposures was replaced every 48 h. For the fecal-water experiment, the assay was repeated twice on one donor (technical replicates) and once on donor B owing to insufficient numbers of cells recovered from the latter donor. Treatment replicates were also considered biological replicates because the human donor cells are not clonal.
Twenty-four hours before co-culture with CD4^+ T cells, DC maturation was stimulated by using DC growth mediators (10 ng ml^−1 […] [(TNF-α), 10 ng ml^−1 IL-1b, 10 ng ml^−1 IL-6 and […] (PGE2)]. In preparation for co-culture, DCs were washed in fresh R10 media, counted via flow cytometry and plated in TexMACs Medium (Miltenyi Biotec, San Diego, Calif.) at 0.5×10^6 live CD45^+ cells per well.
Autologous T lymphocytes were purified from the PBMCs using a naïve CD4^+ T cell isolation kit (Miltenyi Biotec). After purification, naïve autologous CD4^+ T cells were suspended in the TexMACS Medium (Miltenyi Biotec) and added to the treated DCs at a ratio of 10:1 in the presence of soluble anti-CD28 and anti-CD49d ([…]). […] Cytokine secretion was evaluated by cytometric bead array, following the manufacturer's protocol (BD Biosciences). […]

Consider `CCCCCC(O)C(O)C/C=C\CCCCCCCC(=O)O` (centres unmarked) [12,13-DiHOME], for which the “proportion of CD4^+CD25^+FOXP3^+ cells” value reads like this: (75 μM, compared to vehicle control (LME P=0.04)) “significantly reduced”; (130 μM, compared to vehicle control (LME P<0.001)) “significantly reduced”; (200 μM, compared to vehicle control (LME P=0.001)) “significantly reduced”; (all concentrations examined, compared with vehicle treatment) “recapitulated the effect of NGM3 fecal water; also recorded: reduced”. The “effect size for the suppression of CD4^+CD25^+FOXP3^+” value (130 μM, preliminary assays) is “approximately seven”.
